Data set [1] is described as follows: Water solubility of the co-crystals (slurry equilibration, HPLC). To be noted: water suspension (slurry), thermodynamic from solid; water suspensions slurried for 24 hours, filtered, liquid phase by HPLC, room temperature. Type of data set: physicochemical. As for the experimental part:
The determination of the amount of the actives in solution was performed on HPLC ACQUITY (Water) system, equipped with PDA—230 nm UV detector and Sample Manager auto-injector. Waters' Enpower software was used to record the chromatograms and to calculate the chromatographic parameters. […] Injection volume was set 1 μL by auto injector. The analysis were performed with rate flux of 0.4 ml/min. UV detection was performed at 245 nm. Peak identities were confirmed by spectrum and retention time comparison. All the analyses were performed at room temperature. All the analyzed solutions were prepared by slurry equilibration experiments. […] The suspensions were filtered and both solid phase and liquid phase were analyzed by XRPD and HPLC, respectively.

The nature of data set [2]: Isothermal TGA volatility study. To be noted: isothermal TGA at 100° C., weight loss monitored for 12 hours, nitrogen flow. Type of data set: physicochemical. How it is done:
TG/DTA measurement was carried out on a Seiko TG/DTA 7200 instrument. An open aluminium pan was used and the measurement was carried out under nitrogen flow with a sample weight of 5 to 10 mg. The isothermal TGA for volatility studies were performed at 100° C. and the weight loss was monitored for 12 hours.

The structures appear in SMILES notation. In brackets after ≈: the same amount, converted by molar mass.

By solubility is commonly meant how much of the substance goes into solution per volume. Read a high solubility as a readily soluble substance. For the compound `COc1c(Cl)ccc(Cl)c1C(=O)O` [Dicamba, 3,6-dichloro-2-methoxybenzoic acid], the solubility at 24 h in data set [1] turned out to be 6550 µg/mL (≈ 29.6 mM). The “TGA Volatility (% weight loss per minute)” value in data set [2] was 1.20 × 10^−2 % weight loss per minute.

For the origin of these results see patent US20150065347A1, “CO-CRYSTALS OF DICAMBA AND A CO-CRYSTAL FORMER B” (priority 2012, published 2015).
